Where two headings read alike, the source gives them in different places.
Tests used:
ACC2 = ACC2 (Homo sapiens (Human), UniProt O00763); test: In vitro ACC inhibition assay (ADP-Glo), ACC2; assay type: biochemical
Experimental: (§1) Compounds of the present invention were evaluated in an in vitro ACC inhibition assay as described by Harwood, et al, 2003, the entirety of which is incorporated herein by reference.
(§2) In Vitro Acetyl-CoA Carboxylase (ACC) Inhibition Assay
(§3) An exemplary procedure for the in vitro ACC inhibition assay, which can be used to determine the inhibitory action of compounds of the invention toward either ACC1 or ACC2, follows. The ADP-Glo™ Kinase Assay kit from Promega was used. The ADP-Glo™ Kinase Assay is a luminescent ADP detection assay to measure enzymatic activity by quantifying the amount of ADP produced during an enzyme reaction. The assay is performed in two steps; first, after the enzyme reaction, an equal volume of ADP-Glo™ Reagent is added to terminate the reaction and deplete the remaining ATP. Second, the Kinase Detection Reagent is added to simultaneously convert ADP to ATP and allow the newly synthesized ATP to be measured using a luciferase/luciferin reaction. Luminescence can be correlated to ADP concentrations by using an ATP-to-ADP conversion curve. The detailed procedure is as follows. 50 μL of the compound being tested (600 uM in DMSO) was added to a 384-well dilution plate. The compound was diluted 1:3 in succession in DMSO for each row for 11 wells. 0.5 μL ACC2 working solution was added to 384-well white Optiplate assay plate. 0.5 μL diluted compound solution in each column from step 2 to assay plate, each row containing 2 replicates. […] The plates were incubated at room temperature for 15 minutes. 5 μL substrate working solution was added to each well to initiate reaction. Final ACC2 reaction concentrations consist of: 5 nM ACC2, 20 μM ATP, 20 μM acetyl-CoA, 12 mM NaHCO3, 0.01% Brij35, 2 mM DTT, 5% DMSO, test compound concentrations: 30 μM, 10 μM, 3.33 μM, 1.11 μM, 0.37 μM, 0.123 μM, 0.0411 μM, 0.0137 μM, 0.00457 μM, 0.00152 μM, and 0.00051 μM. Plates were incubated at room temperature for 60 minutes. 10 μL ADP glo reagent was added. Plates were incubated at room temperature for 40 minutes. 20 μL kinase detection reagent was added. Plates were incubated at room temperature for 40 minutes, then read on a Perkin Elmer EnVision 2104 plate reader for luminescence as Relative Light Units (RLU).
(§4) Data for each concentration, as well as the positive and negative controls were averaged, and the standard deviation calculated. Percent inhibition was calculated by the formula: 100×(average negative control-compound)/(average negative control-average positive control). The IC50 for each compound was calculated by fitting the data with a non-linear regress ion equation: Y=Bottom+(Top−Bottom)/(1+10((Log IC50−X* HillSlope)), where X is the log of compound concentration and Y is percent inhibition.

HepG2 = test: EC50 in HepG2; assay type: cell-based
ACC1 = ACC1 (Homo sapiens (Human), UniProt Q13085); test: In vitro ACC inhibition assay (ADP-Glo), ACC1; assay type: biochemical
Experimental: as §1, §2, §3, §4

[1] = 5 nM ACC2, 20 μM ATP, 20 μM acetyl-CoA, read-out: IC50 (μM) ACC2
[2] = ND630 versus RJ compounds, isoform not given, read-out: IC50 (μM) ND630/RJ-cmps(%)
[3] = Homo sapiens, HepG2, read-out: EC50 (μM) HepG2
[4] = HepG2, read-out: EC50 (μM) HepG2
[5] = ND630 versus RJ compounds, read-out: EC50 (μM) ND630/RJ-cmps(%)

Sequence of ACC2 (O00763 whole entry, species assumed): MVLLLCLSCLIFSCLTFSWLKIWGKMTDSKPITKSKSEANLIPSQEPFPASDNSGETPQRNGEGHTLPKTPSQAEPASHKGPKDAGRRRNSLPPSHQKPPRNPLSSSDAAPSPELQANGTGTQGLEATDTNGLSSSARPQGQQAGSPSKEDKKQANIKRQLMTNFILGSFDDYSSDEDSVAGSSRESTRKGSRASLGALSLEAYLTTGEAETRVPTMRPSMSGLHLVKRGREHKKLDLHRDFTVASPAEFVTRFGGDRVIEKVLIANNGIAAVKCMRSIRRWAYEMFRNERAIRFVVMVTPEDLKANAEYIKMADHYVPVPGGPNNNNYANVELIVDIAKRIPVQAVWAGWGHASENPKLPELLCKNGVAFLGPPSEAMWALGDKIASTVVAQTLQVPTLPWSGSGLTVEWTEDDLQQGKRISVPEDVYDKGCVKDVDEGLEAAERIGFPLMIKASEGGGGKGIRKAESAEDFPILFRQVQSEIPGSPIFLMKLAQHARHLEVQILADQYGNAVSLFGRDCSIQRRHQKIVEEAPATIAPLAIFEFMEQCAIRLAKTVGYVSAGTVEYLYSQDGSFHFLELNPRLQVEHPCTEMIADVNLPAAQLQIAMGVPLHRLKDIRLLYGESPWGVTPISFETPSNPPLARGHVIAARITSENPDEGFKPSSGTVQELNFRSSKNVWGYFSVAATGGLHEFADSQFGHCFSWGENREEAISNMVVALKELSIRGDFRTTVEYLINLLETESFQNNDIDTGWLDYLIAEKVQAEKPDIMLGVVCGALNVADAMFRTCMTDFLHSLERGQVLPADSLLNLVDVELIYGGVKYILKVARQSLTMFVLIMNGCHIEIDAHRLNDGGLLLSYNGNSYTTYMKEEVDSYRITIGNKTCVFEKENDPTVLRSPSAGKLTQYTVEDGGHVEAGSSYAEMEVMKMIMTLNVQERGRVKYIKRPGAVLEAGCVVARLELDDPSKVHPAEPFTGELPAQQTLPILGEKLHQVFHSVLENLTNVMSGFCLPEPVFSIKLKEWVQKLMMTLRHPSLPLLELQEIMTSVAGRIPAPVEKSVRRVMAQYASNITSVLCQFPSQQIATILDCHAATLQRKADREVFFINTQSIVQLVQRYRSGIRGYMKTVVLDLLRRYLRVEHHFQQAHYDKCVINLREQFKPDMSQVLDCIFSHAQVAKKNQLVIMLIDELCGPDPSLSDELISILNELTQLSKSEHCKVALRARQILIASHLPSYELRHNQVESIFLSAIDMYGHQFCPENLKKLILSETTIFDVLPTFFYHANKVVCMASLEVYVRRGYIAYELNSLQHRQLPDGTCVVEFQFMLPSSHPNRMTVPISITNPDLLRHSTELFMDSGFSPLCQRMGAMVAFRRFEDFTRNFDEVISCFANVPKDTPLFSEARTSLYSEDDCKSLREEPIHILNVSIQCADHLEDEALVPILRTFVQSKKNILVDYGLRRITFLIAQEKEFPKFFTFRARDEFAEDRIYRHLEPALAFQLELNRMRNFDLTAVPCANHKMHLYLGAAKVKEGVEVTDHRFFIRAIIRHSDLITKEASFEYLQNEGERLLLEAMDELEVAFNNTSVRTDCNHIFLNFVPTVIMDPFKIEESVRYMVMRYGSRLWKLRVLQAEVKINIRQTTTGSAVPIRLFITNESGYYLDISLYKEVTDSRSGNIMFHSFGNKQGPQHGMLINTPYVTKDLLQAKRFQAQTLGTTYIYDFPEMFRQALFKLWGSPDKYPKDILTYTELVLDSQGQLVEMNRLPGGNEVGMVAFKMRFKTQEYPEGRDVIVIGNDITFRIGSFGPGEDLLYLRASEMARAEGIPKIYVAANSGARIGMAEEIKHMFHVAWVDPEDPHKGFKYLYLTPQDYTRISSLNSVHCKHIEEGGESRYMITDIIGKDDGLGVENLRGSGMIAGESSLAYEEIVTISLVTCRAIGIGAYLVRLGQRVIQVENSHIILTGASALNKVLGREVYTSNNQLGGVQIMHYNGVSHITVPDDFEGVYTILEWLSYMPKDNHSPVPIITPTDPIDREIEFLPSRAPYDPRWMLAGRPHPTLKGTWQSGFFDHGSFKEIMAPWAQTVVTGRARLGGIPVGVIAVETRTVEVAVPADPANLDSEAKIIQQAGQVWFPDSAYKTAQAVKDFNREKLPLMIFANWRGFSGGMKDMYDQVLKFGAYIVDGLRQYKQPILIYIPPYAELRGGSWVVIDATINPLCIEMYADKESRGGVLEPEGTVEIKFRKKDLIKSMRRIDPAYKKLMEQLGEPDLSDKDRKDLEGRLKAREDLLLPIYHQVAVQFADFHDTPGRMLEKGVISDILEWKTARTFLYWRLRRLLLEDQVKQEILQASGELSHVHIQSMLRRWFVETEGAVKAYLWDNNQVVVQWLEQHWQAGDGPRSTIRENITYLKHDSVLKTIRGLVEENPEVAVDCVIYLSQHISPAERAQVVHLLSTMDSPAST

Compound	IC50 (ACC2; [1]) [µM]	IC50 (ACC2; [2]) [µM]	EC50 (HepG2; [3]) [µM]	EC50 (HepG2; Homo sapiens, ND630 versus RJ compounds, read-out: EC50 (μM) ND630/RJ-cmps(%)) [µM]	EC50 (HepG2; [4]) [µM]	EC50 (HepG2; [5]) [µM]	IC50 (ACC1) [µM]
COc1ccccc1[C@H](Cn1c(=O)n(C(C)(C)C(=O)O)c(=O)c2c(C)c(-c3nnco3)sc21)OC1CCOCC1 [Example 9]	0.1 to 1	0.005 to 0.01	–	–	> 1	> 1	–
COc1ccccc1C(Cn1c(=O)n(C(C)(C)C(=O)O)c(=O)c2cc(C)c(-c3ncco3)cc21)OC1CCOCC1 (stereo not shown) [Example 11]	> 1	0.005 to 0.01	–	–	–	0.01 to 0.1	–
COc1ccccc1C(Cn1c(=O)n(C(C)(C)C(=O)O)c(=O)c2cc(C)c(Br)cc21)OC1CCOCC1 (stereo not shown) [Example 12]	> 1	0.005 to 0.01	–	–	–	0.01 to 0.1	–
COc1ccccc1C(O)Cn1c(=O)n(C(C)(C)C(=O)O)c(=O)c2cc(C)c(-c3ncco3)cc21 (stereo not shown) [Example 13]	> 1	0.005 to 0.01	–	–	–	0.01 to 0.1	–
COc1ccccc1[C@H](Cn1c(=O)n(C2(C(=O)O)CC2)c(=O)c2c(C)csc21)OC1CCOCC1 [Example 17]	> 1	0.005 to 0.01	–	–	–	–	–
COc1ccccc1C(Cn1c(=O)n(C2(CC(=O)N3CCOCC3)CC2)c(=O)c2c(C)c(Br)sc21)OC1CCOCC1 (stereo not shown) [Example 23]	0.1 to 1	0.003 to 0.005	–	–	–	0.1 to 1	–
COCc1sc2c(c1C)c(=O)n(C1(C(=O)O)CCCC1)c(=O)n2C[C@H](CC1CCOCC1)c1ccccc1OC [Example 27]	> 1	0.003 to 0.005	–	–	–	0.1 to 1	–
COc1ccccc1[C@@H](Cn1c(=O)n(C2(C(=O)O)CC2)c(=O)c2c(C)c(-c3ncco3)sc21)OC1CCOCC1 [Example 28]	0.1 to 1	0.003 to 0.005	–	–	–	0.1 to 1	–
COc1ccccc1[C@@H](Cn1c(=O)n(C2(C(=O)O)CC2)c(=O)c2c(C)c(Br)sc21)OC1CCOCC1 [Example 32]	0.1 to 1	0.003 to 0.005	–	–	–	0.1 to 1	–
COc1ccccc1[C@H](Cn1c(=O)n(C2(C(=O)O)CCC2)c(=O)c2c(C)c(CN)sc21)OC1CCOCC1 [Example 34]	> 1	0.003 to 0.005	–	–	–	0.1 to 1	–
COc1ccccc1[C@H](Cn1c(=O)n(C2(C(=O)O)CC2)c(=O)c2cc(-c3ncco3)ccc21)OC1CCOCC1 [Example 39]	> 1	0.005 to 0.01	–	–	0.1 to 1	0.01 to 0.1	–
COc1ccccc1[C@H](Cn1c(=O)n(C2(C(=O)O)CC2)c(=O)c2c(C)c(-n3cncn3)sc21)OC1CCOCC1 [Example 56]	0.1 to 1	0.005 to 0.01	–	–	–	–	–
CNC(=O)C1(n2c(=O)c3cc(Br)sc3n(C[C@H](OC3CCOCC3)c3ccccc3OC)c2=O)CC1 [Example 57]	0.1 to 1	0.005 to 0.01	–	–	0.1 to 1	–	–
COc1ccccc1[C@H](Cn1c(=O)n(C2(CC(=O)O)CC2)c(=O)c2c(C)c(Br)sc21)OC1CCOCC1 [Example 59]	0.01 to 0.1	> 0.01	–	–	–	–	0.01 to 0.05
COc1ccccc1[C@H](Cn1c(=O)n(C2(CC(N)=O)CC2)c(=O)c2c(C)c(Br)sc21)OC1CCOCC1 [Example 60]	0.01 to 0.1	> 0.01	–	–	–	–	0.01 to 0.05
COCCNC(=O)CC1(n2c(=O)c3c(C)c(-c4ncco4)sc3n(CC(OC3CCOCC3)c3ccccc3OC)c2=O)CC1 (stereo not shown) [Example 65]	0.01 to 0.1	–	–	–	> 1	–	–
COc1ccccc1[C@H](Cn1c(=O)n(C(C)(C)C(=O)OC(C)(C)C)c(=O)c2c(C)c(-c3ncco3)sc21)OC1CCOCC1 [Example 66]	0.01 to 0.1	> 0.01	–	–	–	–	0.001 to 0.01
COC(=O)C1(n2c(=O)c3c(C)c(Br)sc3n(C[C@H](OC3CCOCC3)c3ccccc3OC)c2=O)CCC1 [Example 67]	0.1 to 1	> 0.01	–	–	–	–	> 0.05
COc1ccccc1[C@H](Cn1c(=O)n(C(C)(C)C(=O)OC(C)(C)C)c(=O)c2c(C)c(Br)sc21)OC1CCOCC1 [Example 68]	0.1 to 1	> 0.01	–	–	–	–	> 0.05
COc1ccccc1[C@H](Cn1c(=O)n(C2(C(=O)O)CC2)c(=O)c2c(C)c(-c3cnco3)sc21)OC1CCOCC1 [Example 80]	0.01 to 0.1	0.005 to 0.01	–	–	> 1	> 1	–
COc1ccccc1C(Cn1c(=O)n(C2(CC(=O)O)CC2)c(=O)c2c(C)c(-c3ncco3)sc21)OC1CCOCC1 (stereo not shown) [Example 82]	0.01 to 0.1	0.005 to 0.01	–	–	0.01 to 0.1	> 1	–

Further lines, results first:

IC50 (ACC2; [1]) [µM]	IC50 (ACC2; [2]) [µM]	EC50 (HepG2; [3]) [µM]	EC50 (HepG2; Homo sapiens, ND630 versus RJ compounds, read-out: EC50 (μM) ND630/RJ-cmps(%)) [µM]	EC50 (HepG2; [4]) [µM]	EC50 (HepG2; [5]) [µM]	IC50 (ACC1) [µM]	Compound
0.01 to 0.1	0.005 to 0.01	0.01 to 0.1	> 1	–	–	–	COc1ccccc1C(Cn1c(=O)n(C2(C(=O)O)CC2)c(=O)c2c(C)c(-c3ncco3)sc21)OC1CCOCC1 (stereo not shown) [Example 3, 1-[1-[2-(2-methoxyphenyl)-2-tetrahydropyran-4-yloxy-ethyl]-5-methyl-6-oxazol-2-yl-2,4-dioxo-thieno[2,3-d]pyrimidin-3-yl]cyclopropanecarboxylic acid]
0.01 to 0.1	0.005 to 0.01	0.01 to 0.1	–	–	–	–	COc1ccccc1C(Cn1c(=O)n(C2(C(=O)O)CC2)c(=O)c2c(C)c(Br)sc21)OC1CCOCC1 (stereo not shown) [Example 4, 1-(6-bromo-1-(2-(2-methoxyphenyl)-2-(tetrahydro-2H-pyran-4-yloxy)ethyl)-5-methyl-2,4-dioxo-1,2-dihydrothieno[2,3-d]pyrimidin-3(4H)-yl)cyclopropanecarboxylic Acid]
0.01 to 0.1	0.005 to 0.01	–	–	> 1	> 1	–	COc1ccccc1[C@H](Cn1c(=O)n(C(C)(C)C(=O)O)c(=O)c2c(C)c(-c3ncco3)sc21)OC1CCOCC1 [Example 8]
0.01 to 0.1	0.005 to 0.01	–	–	0.1 to 1	> 1	–	COc1ccccc1C(Cn1c(=O)n(C(C)(C)C(=O)O)c(=O)c2c(C)c(Br)sc21)OC1CCOCC1 (stereo not shown) [Example 10]
< 0.01	0.003 to 0.005	–	–	–	0.1 to 1	–	COc1ccccc1C(Cn1c(=O)n(C2(C(=O)O)CCCC2)c(=O)c2c(C)c(-c3ncco3)sc21)OC1CCOCC1 (stereo not shown) [Example 25]
< 0.01	0.003 to 0.005	–	–	–	0.1 to 1	–	COc1ccccc1C(Cn1c(=O)n(C2(C(=O)O)CCC2)c(=O)c2c(C)c(-c3ncco3)sc21)OC1CCOCC1 (stereo not shown) [Example 26]
< 0.01	0.005 to 0.01	–	–	< 0.01	> 1	0.001 to 0.01	COc1ccccc1C(Cn1c(=O)n(C2(C(N)=O)CCCC2)c(=O)c2c(C)c(-c3ncco3)sc21)OC1CCOCC1 (stereo not shown) [Example 43]
0.01 to 0.1	0.005 to 0.01	–	–	< 0.01	> 1	0.001 to 0.01	CNC(=O)C1(n2c(=O)c3c(C)c(-c4ncco4)sc3n(CC(OC3CCOCC3)c3ccccc3OC)c2=O)CCCC1 (stereo not shown) [Example 44]
< 0.01	0.005 to 0.01	–	–	0.1 to 1	> 1	–	COc1ccccc1[C@H](Cn1c(=O)n(C2(C(=O)O)CC2)c(=O)c2c(C)c(-n3cccn3)sc21)OC1CCOCC1 [Example 45]
0.01 to 0.1	0.005 to 0.01	–	–	0.01 to 0.1	> 1	0.001 to 0.01	COc1ccccc1C(Cn1c(=O)n(C2(C(N)=O)CC2)c(=O)c2c(C)c(-c3ncco3)sc21)OC1CCOCC1 (stereo not shown) [Example 46]
< 0.01	0.003 to 0.005	–	–	0.1 to 1	> 1	–	COc1ccccc1C(Cn1c(=O)n(C2(C(N)=O)CCCC2)c(=O)c2c(C)c(Br)sc21)OC1CCOCC1 (stereo not shown) [Example 48]
< 0.01	0.003 to 0.005	–	–	0.1 to 1	0.1 to 1	–	COc1ccccc1[C@H](Cn1c(=O)n(C2(C(=O)O)CC2)c(=O)c2c(C)c(-n3nccn3)sc21)OC1CCOCC1 [Example 49]
0.01 to 0.1	0.003 to 0.005	–	–	–	0.1 to 1	–	CNC(=O)C1(n2c(=O)c3c(C)c(Br)sc3n(CC(OC3CCOCC3)c3ccccc3OC)c2=O)CCCC1 (stereo not shown) [Example 50]

— patent US10995099B2, “Compounds and their uses as ACC inhibitors” (NANJING RUIJIE PHARMATECH CO., LTD., priority 2017, dated 2021)
